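Five concentrations, 48 hours, 96-well plates. GI50 marks 50% less growth. TGI: total growth inhibition.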
Experiments:
Assay in all cases: DTP human tumour cell line panel, 48 h
HCT-116 colon = tested on: HCT-116 colon
ACHN renal = tested on: ACHN renal
MDA-MB-435 = tested on: MDA-MB-435
786-0 renal = tested on: 786-0 renal
IGROV1 ovarian = tested on: IGROV1 ovarian
HL-60(TB) leukemia = tested on: HL-60(TB) leukemia
SK-OV-3 ovarian = tested on: SK-OV-3 ovarian
HOP-92 NSCLC = tested on: HOP-92 NSCLC
HOP-62 NSCLC = tested on: HOP-62 NSCLC
CAKI-1 renal = tested on: CAKI-1 renal
NCI-H23 lung = tested on: NCI-H23 lung
SN12C renal = tested on: SN12C renal
MDA-MB-231 breast = tested on: MDA-MB-231 breast
SF-268 CNS = tested on: SF-268 CNS
KM12 colon = tested on: KM12 colon
NCI-H226 lung = tested on: NCI-H226 lung
T-47D breast = tested on: T-47D breast

| SMILES | TGI (HCT-116 colon) [µM] | TGI (ACHN renal) [µM] | TGI (MDA-MB-435) [µM] | TGI (786-0 renal) [µM] | TGI (IGROV1 ovarian) [µM] | TGI (HL-60(TB) leukemia) [µM] | TGI (SK-OV-3 ovarian) [µM] | TGI (HOP-92 NSCLC) [µM] | TGI (HOP-62 NSCLC) [µM] | TGI (CAKI-1 renal) [µM] | TGI (NCI-H23 lung) [µM] | TGI (SN12C renal) [µM] | TGI (MDA-MB-231 breast) [µM] | TGI (SF-268 CNS) [µM] | TGI (KM12 colon) [µM] | GI50 (HCT-116 colon) [µM] | TGI (NCI-H226 lung) [µM] | TGI (T-47D breast) [µM] |
| --- | --- | --- | --- | --- | --- | --- | --- | --- | --- | --- | --- | --- | --- | --- | --- | --- | --- | --- |
| O=c1cc(-c2ccccc2)oc2ccc(-c3ccc4oc(-c5ccccc5)cc(=O)c4c3)cc12 | 31.2 | 59.2 | 35.7 | 72.5 | 84.5 | 27.8 | > 100 | 30.8 | 36.5 | 46 | 34.5 |  |  |  |  |  |  |  |
| CN1C(=O)c2c(c3c4ccccc4n(C4OC(CO)C(O)C(O)C4O)c3c3[nH]c4ccccc4c23)C1=O (stereo not drawn) | 2.88 | 6.45 | 6.95 | 7.31 | 4.1 |  | 10.9 | 5.86 | 9.51 | 5.3 | 9.6 | 9.71 | 5.33 | 4.85 | 11.3 |  |  |  |
| CC#Cc1cc2c(cc1O)CC[C@@H]1[C@@H]2CC[C@]2(C)[C@@H](O)CC[C@@H]12 | 17.3 | > 69.6 | 0.814 | 35.1 | 38.1 |  | > 62.2 | 26.9 | 16 | > 69.6 | 10.6 | 22.8 | 46.2 | > 100 | 14.1 | 0.48 | 17.8 | > 89.6 |
| COc1ccc(C2CC(c3ccc4ccccc4c3O)=NN2C(C)=O)cc1OC (stereo not drawn) | > 100 | > 100 | > 100 | > 100 | > 100 |  | > 100 | > 100 | > 100 | > 100 | > 100 | > 100 | > 100 | > 100 | > 100 |  | > 100 | > 100 |
| CCOC(=O)CCC(C(=O)OCC)n1nnc2ccc(Nc3c(C)[n+]([O-])c4cc(Cl)ccc4[n+]3[O-])cc21 (stereo not drawn) | > 100 | > 100 | 40.4 | > 100 | 79 | 83.5 | > 100 | 38.7 | > 100 | > 100 | 69.4 | 66.9 |  | 55.1 | 86.7 |  | 81.5 | 44.3 |
| CCOC(=O)C(=Cc1cc(OC)ccc1OC)C(=O)OCC | 27.5 | 31.8 |  | 14.1 | 58.5 | 6.12 | 29.9 | 17 | 23.6 | 28.1 | 10.9 | 26.3 |  |  | 19.9 |  | 27 |  |
| COc1c(C)c(C/C=C(\C)CCCCO)c(OC)c(OC)c1OC | > 100 | > 100 | > 100 | > 100 | > 100 |  | > 100 | > 100 | > 100 |  | > 100 | > 100 | > 100 | > 100 | 41.5 |  |  |  |
| CCOC(=O)[C@H]1Nc2ccc(Cl)cc2[C@H]2OCC[C@@H]12 | > 100 | > 100 |  | > 100 | > 100 | > 100 | > 100 |  | > 100 | > 100 | > 100 | > 100 |  | > 100 | > 100 |  | > 100 |  |

From PubChem BioAssay (NCI)
